In US9789156B2, “Combination anti-human epidermal growth factor receptor 2 (anti-HER2) cancer therapy using mucin 1 (MUC1) peptides and hemotherapeutics” (DANA-FARBER CANCER INSTITUTE, INC., priority 2013, dated 2017):
Where two headings read alike, the source gives them in different places. Square brackets hold non-standard residues; d marks the D form. Peptide text beside a SMILES is read from it.

How the values were obtained:
[1] = test system: BT474R tumor xenografts; assay: Trastuzumab-resistant BT474R tumor xenograft model; assay type: in vivo, BALB/c nu/nu mice; settings: 7.5 mg/kg GO-203 intravenously each day for 21 days
Protocol: FIGS. 5A-G. Targeting MUC1-C in trastuzumab-resistant cells suppresses HER3 activation and inhibits growth and clonogenic survival. (FIG. 5A) Lysates from the indicated SKBR3R (left) and BT474R (right) cells were immunoblotted (IB) with anti-p-HER3 and anti-HER3. (FIG. 5B) The indicated SKBR3R (left) and BT474R (right) cells were seeded at 4000 and 1000 cells per well, respectively, and incubated for 12 days. The colony number is expressed as the mean±s.e. of three replicates. (FIG. 5C) SKBR3R cells were treated with […] GO-203 for the indicated times. Lysates were immunoblotted with the indicated antibodies. (FIG. 5D) SKBR3R cells were left untreated (Control; CTL) or treated with […] GO-203 for the indicated times. Cell number (mean±s.e. of three determinations) was determined by Trypan blue staining. (FIG. 5E) BT474R cells were treated with […] GO-203 for the indicated times. Lysates were immunoblotted with the indicated antibodies. (FIG. 5F) BT474R cells were left untreated (Control; CTL) or treated with […] GO-203 for the indicated times. Cell number (mean±s.e. of three determinations) was determined by Trypan blue staining. […] The results are expressed as tumor volume (mean±s.e. for the eight mice in each group).
Trastuzumab-resistant BT474R tumor xenograft model. […] Tumor volumes were calculated as described (Raina et al., 2011).

[2] = test system: BT474 cells; assay type: cell-based, human; settings: 72 h
Protocol: (§1) Cell culture. SKBR3 and BT474 cells were obtained from ATCC (Rockville, Md.). SKBR3 and BT474 were maintained in McCoy's 5a modified medium and Dulbecco's modified Eagle medium/Ham F12 (1:1) supplemented with 10% heat-inactivated FBS, 100 units/ml penicillin, […] streptomycin, and 2 mM L-glutamine. […] Cells were treated with GO-203 and CP-2 peptides (AnaSpec). […] Viability was determined by trypan blue exclusion.
(§2) Determination of IC50 and synergism. Cells were seeded on 96-well plates in 100 μl of growth medium at a density of 3000 cells per well. After 24 h, the cells were exposed to drugs in treatment medium for an additional 72 h. Cell viability was assessed using the alamar blue viability assay (Invitrogen). Triplicate wells of each treatment were analyzed and each experiment was done three times. The IC50 values were determined by nonlinear regression of the dose-response data using Prism 5.0 for Mac OSX (GraphPad Software). […] Cell viability was determined after treatment for 72 h. The combination index (CI) was calculated to determine the presence of synergism (CI<1) or antagonism (CI>1) using CalcuSyn software (Biosoft).

[3] = test system: SKBR3 cells; assay type: cell-based, human
Protocol: as §1, §2

[4] = test system: SKBR3R cells; assay: cells; assay type: cell-based; settings: Homo sapiens, 72 h
Protocol: as §1, §2
(§3) Assessment of drug interaction by Bliss independence. […] Using this equation, if the experimentally measured inhibition is greater than Ei, then the combination is synergistic.38 Plots were generated by Prism GraphPad software.

[5] = test system: BT474R cells; assay: cells; assay type: cell-based, human; settings: for IC50: Homo sapiens, 72 h
Protocol: as §1, §2, §3

weight loss [1]	IC50 [2] [nM]	IC50 [3] [nM]	IC50 ([4]; read-out: Lapatinib (μM) IC50, SKBR3R cells, 72 h, lapatinib alone (Table 3)) [µM]	IC50 ([4]; read-out: Lapatinib (μM) IC50, SKBR3R cells, 72 h, lapatinib alone (Table 4)) [µM]	IC50 ([4]; read-out: Lapatinib (μM) IC50 with GO-203, SKBR3R cells, 72 h, with 4 μM GO-203) [µM]	IC50 ([4]; read-out: Lapatinib (μM) IC50 with Trastuzumab and GO-203, SKBR3R cells, 72 h, with 40 nM trastuzumab+4 μM GO-203) [µM]	IC50 ([4]; read-out: Lapatinib (μM) IC50 with Trastuzumab, SKBR3R cells, 72 h, with 40 nM trastuzumab) [µM]	IC50 ([5]; read-out: Lapatinib (μM) IC50, BT474R cells, 72 h, lapatinib alone (Table 3)) [µM]	IC50 ([5]; read-out: Lapatinib (μM) IC50, BT474R cells, 72 h, lapatinib alone (Table 4)) [µM]	IC50 ([5]; read-out: Lapatinib (μM) IC50 with GO-203, BT474R cells, 72 h, with 4 μM GO-203) [µM]	IC50 ([5]; read-out: Lapatinib (μM) IC50 with Trastuzumab and GO-203, BT474R cells, 72 h, with 40 nM trastuzumab+4 μM GO-203) [µM]	IC50 ([5]; read-out: Lapatinib (μM) IC50 with Trastuzumab, BT474R cells, 72 h, with 40 nM trastuzumab) [µM]	Compound	Fold change ([5]; BT474R cells, lapatinib IC50 alone vs with GO-203)
no weight loss	10200	5900											N=C(N)NCCC[C@@H](N)C(=O)N[C@H](CCCNC(=N)N)C(=O)N[C@H](CCCNC(=N)N)C(=O)N[C@H](CCCNC(=N)N)C(=O)N[C@H](CCCNC(=N)N)C(=O)N[C@H](CCCNC(=N)N)C(=O)N[C@H](CCCNC(=N)N)C(=O)N[C@H](CCCNC(=N)N)C(=O)N[C@H](CCCNC(=N)N)C(=O)N[C@H](CS)C(=O)N[C@H](CCC(N)=O)C(=O)N[C@H](CS)C(=O)N[C@H](CCCNC(=N)N)C(=O)N[C@H](CCCNC(=N)N)C(=O)N[C@H](CCCCN)C(=O)N[C@H](CC(N)=O)C(=O)O [GO-203] (H-[dR][dR][dR][dR][dR][dR][dR][dR][dR][dC][dQ][dC][dR][dR][dK][dN]-OH)	
			1.36	1.7	0.94	0.93	1.5	1.43	1.5	0.67	0.22	1.2	CS(=O)(=O)CCNCc1ccc(-c2ccc3ncnc(Nc4ccc(OCc5cccc(F)c5)c(Cl)c4)c3c2)o1 [Lapatinib]	2.13
